Measurements published in ChEMBL document CHEMBL1145317, “Hit-to-lead optimization of 1,4-dihydroindeno[1,2-c]pyrazoles as a novel class of KDR kinase inhibitors” (Bioorg Med Chem Lett, 2006).
pIC50: −log10 of the molar value.

What was measured:
[1] = molecular target: T1, Vascular endothelial growth factor receptor 2 (Homo sapiens, UniProt P35968)
[2] = molecular target: Fibroblast growth factor receptor (Homo sapiens, UniProt P22607+P11362+P22455+P21802); assay: Inhibition of FGFR by HTRF assay; format: protein assay
[3] = molecular target: Tyrosine-protein kinase Lck (Homo sapiens, UniProt P06239); assay: Inhibition of Lck by HTRF assay
[4] = molecular target: Hepatocyte growth factor receptor (Homo sapiens, UniProt P08581); assay: Inhibition of cMet by HTRF assay
[5] = molecular target: Vascular endothelial growth factor receptor 1 (Homo sapiens, UniProt P17948); assay: Inhibition of FLT1 by HTRF assay
[6] = molecular target: Vascular endothelial growth factor receptor 3 (Homo sapiens, UniProt P35916); assay: Inhibition of FLT4 by HTRF assay
[7] = molecular target: Mast/stem cell growth factor receptor Kit (Homo sapiens, UniProt P10721); assay: Inhibition of cKit by HTRF assay
[8] = molecular target: Platelet-derived growth factor receptor (Homo sapiens, UniProt P09619+P16234); assay: Inhibition of PDGFR by HTRF assay; format: protein-complex assay
Angiopoietin-1 receptor = Angiopoietin-1 receptor (Homo sapiens, UniProt Q02763); assay: Inhibition of Tie2 by HTRF assay
[9] = molecular target: T1, Vascular endothelial growth factor receptor 2; assay: Inhibition of VEGF-induced human KDR phosphorylation transfected in NIH3T3 cells by ELISA; format: functional, cell-based
Mus musculus = assay: Activity against estradiol-induced uterine edema in orally dosed murine; format: functional; settings: po

Structure (SMILES): CN1CCN(c2ccc3c(c2)Cc2c(-c4cccs4)n[nH]c2-3)CC1
- pIC50 [1]: 3.00

Structure (SMILES): CN1CCN(Cc2ccc3c(c2)Cc2c-3n[nH]c2-c2cc3ccccc3s2)CC1
- pIC50 [1]: < 4.30

Structure (SMILES): O=CN1CCN(Cc2ccc3c(c2)-c2n[nH]c(-c4ccsc4)c2C3)CC1
- pIC50 [1]: 6.18

Structure (SMILES): CN1CCN(Cc2ccc3c(c2)-c2[nH]nc(-c4ccsc4)c2C3)CC1
- IC50 [2]: > 50 µM
- pIC50 [3]: < 4.30
- pIC50 [4]: < 4.30
- pIC50 [1]: 6.74
- pIC50 [5]: 6.01
- pIC50 [6]: 5.80
- pIC50 [7]: 6.84
- pIC50 [8]: < 4.30
- pIC50 (Angiopoietin-1 receptor): 4.32

Structure (SMILES): CC(C)N1CCN(Cc2ccc3c(c2)-c2n[nH]c(-c4ccsc4)c2C3)CC1
- pIC50 [1]: 6.72

Structure (SMILES): c1ncn(Cc2ccc3c(c2)-c2n[nH]c(-c4ccsc4)c2C3)n1
- pIC50 [1]: 6.97

Structure (SMILES): CN1CCN(CCc2ccc3c(c2)-c2n[nH]c(-c4ccsc4)c2C3)CC1
- pIC50 [1]: 6.84

Structure (SMILES): CCN(CC)Cc1ccc2c(c1)-c1n[nH]c(-c3ccsc3)c1C2
- pIC50 [1]: 6.08

Structure (SMILES): c1cn(Cc2ccc3c(c2)-c2[nH]nc(-c4ccsc4)c2C3)nn1
- pIC50 [1]: 6.72

Structure (SMILES): c1cn(Cc2ccc3c(c2)-c2[nH]nc(-c4ccsc4)c2C3)cn1
- IC50 [2]: 34.355 µM
- pIC50 [3]: 4.67
- pIC50 [4]: < 4.30
- pIC50 [9]: 6.53
- ED50 (Mus musculus): 20 mg/kg
- pIC50 [1]: 6.83
- pIC50 [5]: 6.22
- pIC50 [6]: 6.77
- pIC50 [7]: 6.99
- pIC50 (Angiopoietin-1 receptor): 4.75

Structure (SMILES): CN1CCN(C(=O)c2ccc3c(c2)-c2[nH]nc(-c4ccsc4)c2C3)CC1
- pIC50 [1]: 5.39

Structure (SMILES): Cc1ccsc1-c1[nH]nc2c1Cc1cc(CN3CCN(C)CC3)ccc1-2
- pIC50 [1]: < 4.30
